30 compounds from US20110135671A1, “PURINE DERIVATIVES FOR USE IN THE TREATMENT OF ALLERGIC, INFLAMMATORY AND INFECTIOUS DISEASES” (GLAXOSMITHKLINE LLC, priority 2008, published 2011) can be followed below.

Counter-ions that a name gives are not always drawn.

The subject of this experiment is Interferon-α. In words: Induction of Interferon-α using cryopreserved human PBMCs. In kind it is cell-based. Particulars: PBMC, 24 h, normalised to 1 uM resiquimod, read-out: mean pEC50 for induction of Interferon-α (converted). As for the experimental part:
Assay for the Induction of Interferon-α using Cryopreserved Human Peripheral Blood Mononuclear Cells (PBMCs)
Compounds were dissolved in DMSO. Serial 2-fold dilutions with DMSO were prepared and 0.25 μl dispensed into 384-well clear Greiner polypropylene plates.
Blood samples of up to 200 ml were obtained from healthy human donors. Whole blood in 25 ml volumes was overlaid onto 15 ml Ficoll gradients in Leucosep tubes, and centrifuged at 1000 g for 20 min. Cells in the band at the plasma/histopaque interface were carefully removed and washed twice with PBS (centrifuged at 400 g for 5 min to harvest). The final pellet was resuspended in freezing medium (90% Heat-inactivated serum, 10% DMSO) to a cell concentration of 4×10^7 cells/ml. The resuspended cells were then cryopreserved (frozen) using a rate controlled freezer, and stored at −140° C. for up to 4 months.
Incubation and Assay for Interferon-α
Immediately prior to assay, vials of cryopreserved (frozen) PBMCs were thawed rapidly in a water bath at 37° C. A 1:10 dilution of the cells in trypan blue was prepared and counted. The PBMCs were then diluted in growth media [RPMI 1640 containing 10% fetal calf serum (invitrogen), Penicillin+Streptavidin (Gibco cat. # 25030-024, 1:50), L-Glutamine 2 mM, and 1000 units/ml recombinant human IFN-gamma (Preprotech catalogue #300-02)] to a density of 1×10^6 cells/ml, and 50 ul/well dispensed to 384-well clear Greiner polypropylene plates containing 0.25 μl DMSO or test compound in 0.25 μl DMSO. […] Plates were incubated for 24 h at 37° C. in 5% CO2.
A multi-isoform immunoassay was used to quantify IFN-α in PBMC supernatants. Rabbit polyclonal antibody against human IFN-α (catalogue number 31101, Stratech Scientific) was diluted 1:10000 in assay buffer (RPMI 1640 containing 10% fetal calf serum, Invitrogen) and 20 μl was added to each well of an MSD (Meso-Scale Discovery) single small-spot 384-well GAR (goat anti-rabbit antibody coated) plate. The plate was incubated for 1 h at room temperature with vigorous shaking. Following three washes with PBS, 20 μl of cell supernatant were added to each well of the plate. The plate was then incubated for 1 h at room temperature with vigorous shaking. A pair of monoclonal antibodies to IFN-α (catalogue numbers 21100 and 21112, Stratech Scientific) were labelled with sulfo-TAG (MSD), diluted 1:1000 in assay buffer and 20 μl added to each well of the plate. The plate was further incubated for 1 h at room temperature with vigorous shaking. Following three washes with PBS, 30 μl of ×2 T buffer (MSD) was added to each well and the plate was read on an MSD Sector 6000 plate reader.
Data were normalised to internal plate controls of 1 uM resiquimod (n=16) and DMSO (n=16). pEC50 values were derived by 4-parameter curve fit with IRLS in ActivityBase, from 11-point, two-fold serial dilution of test compounds.
Consider `CCCCOc1nc(N)c2[nH]c(=O)n(CCN3CCN(C4CCCCC4)CC3)c2n1` [Example 2, 6-Amino-2-(butyloxy)-9-[2-(4-cyclohexyl-1-piperazinyl)ethyl]-7,9-dihydro-8H-purin-8-one dihydrochloride salt], for which the EC50 is less than 3.16 µM.

Turning to `CCCCNc1nc(N)c2[nH]c(=O)n(CCN3CCN(C)CC3)c2n1` [Example 3, 6-Amino-2-(butylamino)-9-[2-(4-methyl-1-piperazinyl)ethyl]-7,9-dihydro-8H-purin-8-one], the EC50 was less than 3.16 µM.

As to `CCCCNc1nc(N)c2[nH]c(=O)n(CCN3CCN(C(C)C)CC3)c2n1` [Example 4, 6-Amino-2-(butylamino)-9-{2-[4-(1-methylethyl)-1-piperazinyl]ethyl}-7,9-dihydro-8H-purin-8-one], the EC50 is less than 3.16 µM.

With `CCCCNc1nc(N)c2[nH]c(=O)n(CCN3CCN(C4CCCCC4)CC3)c2n1` [Example 5, 6-Amino-2-(butylamino)-9-[2-(4-cyclohexyl-1-piperazinyl)ethyl]-7,9-dihydro-8H-purin-8-one], the EC50 is less than 3.16 µM.

With `CCCCOc1nc(N)c2[nH]c(=O)n(CCCN3CCN(CC)CC3)c2n1` [Example 7, 6-Amino-2-(butyloxy)-9-[3-(4-ethyl-1-piperazinyl)propyl]-7,9-dihydro-8H-purin-8-one], the EC50 was less than 3.16 µM.

Regarding `CCCCOc1nc(N)c2[nH]c(=O)n(CCCN3CCN(CCC)CC3)c2n1` [Example 8, 6-Amino-2-(butyloxy)-9-[3-(4-propyl-1-piperazinyl)propyl]-7,9-dihydro-8H-purin-8-one], the EC50 was less than 3.16 µM.

As for `CCCCOc1nc(N)c2[nH]c(=O)n(CCCN3CCN(C(C)C)CC3)c2n1` [Example 9, 6-Amino-2-(butyloxy)-9-{3-[4-(1-methylethyl)-1-piperazinyl]propyl}-7,9-dihydro-8H-purin-8-one], the EC50 is less than 3.16 µM.

Take `CCCCOc1nc(N)c2[nH]c(=O)n(CCCN3CCN(CCCC)CC3)c2n1` [Example 10, 6-Amino-2-(butyloxy)-9-[3-(4-butyl-1-piperazinyl)propyl]-7,9-dihydro-8H-purin-8-one]: the EC50 was less than 3.16 µM.

For the compound `CCCCOc1nc(N)c2[nH]c(=O)n(CCCN3CCN(CC(C)C)CC3)c2n1` [Example 11, 6-Amino-2-(butyloxy)-9-{3-[4-(2-methylpropyl)-1-piperazinyl]propyl}-7,9-dihydro-8H-purin-8-one], the EC50 was less than 3.16 µM.

`CCCCOc1nc(N)c2[nH]c(=O)n(CCCN3CCN(C(C)(C)C)CC3)c2n1` [Example 12, 6-Amino-2-(butyloxy)-9-{3-[4-(1,1-dimethylethyl)-1-piperazinyl]propyl}-7,9-dihydro-8H-purin-8-one]: the EC50 was less than 3.16 µM.

For the compound `CCCCOc1nc(N)c2[nH]c(=O)n(CCCN3CCN(CC4CC4)CC3)c2n1` [Example 13, 6-Amino-2-(butyloxy)-9-{3-[4-(cyclopropylmethyl)-1-piperazinyl]propyl}-7,9-dihydro-8H-purin-8-one], the EC50 is less than 3.16 µM.

Turning to `CCCCOc1nc(N)c2[nH]c(=O)n(CCCN3CCN(C4CCCC4)CC3)c2n1` [Example 14, 6-Amino-2-(butyloxy)-9-[3-(4-cyclopentyl-1-piperazinyl)propyl]-7,9-dihydro-8H-purin-8-one], the EC50 was less than 3.16 µM.

Take `CCCCOc1nc(N)c2[nH]c(=O)n(CCCN3CCN(C4CCCCC4)CC3)c2n1` [Example 15, 6-Amino-2-(butyloxy)-9-[3-(4-cyclohexyl-1-piperazinyl)propyl]-7,9-dihydro-8H-purin-8-one]: the EC50 is less than 3.16 µM.

As to `CCCCNc1nc(N)c2[nH]c(=O)n(CCCN3CCN(C)CC3)c2n1` [Example 16, 6-Amino-2-(butylamino)-9-[3-(4-methyl-1-piperazinyl)propyl]-7,9-dihydro-8H-purin-8-one], the EC50 was less than 3.16 µM.

Regarding `CCCCNc1nc(N)c2[nH]c(=O)n(CCCN3CCN(CC)CC3)c2n1` [Example 17, 6-Amino-2-(butylamino)-9-[3-(4-ethyl-1-piperazinyl)propyl]-7,9-dihydro-8H-purin-8-one], the EC50 is less than 3.16 µM.

Consider `CCCCNc1nc(N)c2[nH]c(=O)n(CCCN3CCN(CCC)CC3)c2n1` [Example 18, 6-Amino-2-(butylamino)-9-[3-(4-propyl-1-piperazinyl)propyl]-7,9-dihydro-8H-purin-8-one], for which the EC50 was less than 3.16 µM.

As for `CCCCNc1nc(N)c2[nH]c(=O)n(CCCN3CCN(C(C)C)CC3)c2n1` [Example 19, 6-Amino-2-(butylamino)-9-{3-[4-(1-methylethyl)-1-piperazinyl]propyl}-7,9-dihydro-8H-purin-8-one], the EC50 is less than 3.16 µM.

As to `CCCCNc1nc(N)c2[nH]c(=O)n(CCCN3CCN(CCCC)CC3)c2n1` [Example 20, 6-Amino-2-(butylamino)-9-[3-(4-butyl-1-piperazinyl)propyl]-7,9-dihydro-8H-purin-8-one], the EC50 is less than 3.16 µM.

Take `CCCCNc1nc(N)c2[nH]c(=O)n(CCCN3CCN(CC(C)C)CC3)c2n1` [Example 21, 6-Amino-2-(butylamino)-9-{3-[4-(2-methylpropyl)-1-piperazinyl]propyl}-7,9-dihydro-8H-purin-8-one]: the EC50 was less than 3.16 µM.

In the case of `CCCCNc1nc(N)c2[nH]c(=O)n(CCCN3CCN(C(C)(C)C)CC3)c2n1` [Example 22, 6-Amino-2-(butylamino)-9-{3-[4-(1,1-dimethylethyl)-1-piperazinyl]propyl}-7,9-dihydro-8H-purin-8-one], the EC50 was less than 3.16 µM.

For the compound `CCCCNc1nc(N)c2[nH]c(=O)n(CCCN3CCN(CC4CC4)CC3)c2n1` [Example 23, 6-Amino-2-(butylamino)-9-{3-[4-(cyclopropylmethyl)-1-piperazinyl]propyl}-7,9-dihydro-8H-purin-8-one], the EC50 was less than 3.16 µM.

On to `CCCCNc1nc(N)c2[nH]c(=O)n(CCCN3CCN(C4CCCC4)CC3)c2n1` [Example 24, 6-Amino-2-(butylamino)-9-[3-(4-cyclopentyl-1-piperazinyl)propyl]-7,9-dihydro-8H-purin-8-one], for which the EC50 was less than 3.16 µM.

Take `CCCCNc1nc(N)c2[nH]c(=O)n(CCCN3CCN(C4CCCCC4)CC3)c2n1` [Example 25, 6-Amino-2-(butylamino)-9-[3-(4-cyclohexyl-1-piperazinyl)propyl]-7,9-dihydro-8H-purin-8-one]: the EC50 is less than 3.16 µM.

For `CCCCOc1nc(N)c2[nH]c(=O)n(CCCCN3CCN(CCC)CC3)c2n1` [Example 28, 6-Amino-2-(butyloxy)-9-[4-(4-propyl-1-piperazinyl)butyl]-7,9-dihydro-8H-purin-8-one], the EC50 was less than 3.16 µM.

For the compound `CCCCOc1nc(N)c2[nH]c(=O)n(CCCCN3CCN(CCCC)CC3)c2n1` [Example 30, 6-Amino-2-(butyloxy)-9-[4-(4-butyl-1-piperazinyl)butyl]-7,9-dihydro-8H-purin-8-one], the EC50 was less than 3.16 µM.

As to `CCCCOc1nc(N)c2[nH]c(=O)n(CCCCN3CCN(CC(C)C)CC3)c2n1` [Example 31, 6-Amino-2-(butyloxy)-9-{4-[4-(2-methylpropyl)-1-piperazinyl]butyl}-7,9-dihydro-8H-purin-8-one], the EC50 was less than 3.16 µM.

As for `CCCCOc1nc(N)c2[nH]c(=O)n(CCCCN3CCN(CC4CC4)CC3)c2n1` [Example 33, 6-Amino-2-(butyloxy)-9-{4-[4-(cyclopropylmethyl)-1-piperazinyl]butyl}-7,9-dihydro-8H-purin-8-one], the EC50 is less than 3.16 µM.

On to `CCCCOc1nc(N)c2[nH]c(=O)n(CCCCN3CCN(C4CCCC4)CC3)c2n1` [Example 34, 6-Amino-2-(butyloxy)-9-[4-(4-cyclopentyl-1-piperazinyl)butyl]-7,9-dihydro-8H-purin-8-one], for which the EC50 is less than 3.16 µM.

For `CCCCOc1nc(N)c2[nH]c(=O)n(CCCCN3CCN(C4CCCCC4)CC3)c2n1` [Example 35, 6-Amino-2-(butyloxy)-9-[4-(4-cyclohexyl-1-piperazinyl)butyl]-7,9-dihydro-8H-purin-8-one], the EC50 was less than 3.16 µM.

Turning to `CCCCNc1nc(N)c2[nH]c(=O)n(CCCCN3CCN(CC)CC3)c2n1` [Example 36, 6-Amino-2-(butylamino)-9-[4-(4-ethyl-1-piperazinyl)butyl]-7,9-dihydro-8H-purin-8-one], the EC50 is less than 3.16 µM.
